Test results from PubChem BioAssay AID256 (DTP/NCI, 2004).
Values joined by “and” are separate entries in the source; they are usually repeats but may differ in a detail not shown here. Equal entries are not always repeated. Inconclusive results and toxic doses are left out. How the source made its calls: active means survival T/C of 150% or more; inactive means T/C below 125% in these data.

Tested on: CD2F1 mice, L1210 leukemia ip, survival T/C
Assay: NCI In Vivo Anticancer Drug Screen. Data for tumor model L1210 Leukemia (intraperitoneal) in CD2F1 (CDF1) mice
Conditions: endpoint: mean survival time, higher = longer survival
In short: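 Transplantable tumor in mice; compound-treated vs vehicle-treated groups. Read-out = treated/control ratio of the measured endpoint.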

[1] = dose: 12.5 mg/kg/injection, schedule: Q01DX009 (ip), vehicle: Klucel (hydroxypropylcellulose) (HPC)
[2] = dose: 25.0 mg/kg/injection, schedule: Q01DX009 (ip), vehicle: Klucel (hydroxypropylcellulose) (HPC)
[3] = dose: 25.0 mg/kg/injection, schedule: Q01DX009 (ip), vehicle: saline with Tween-80
[4] = dose: 50.0 mg/kg/injection, schedule: Q01DX009 (ip), vehicle: Klucel (hydroxypropylcellulose) (HPC)
[5] = dose: 50.0 mg/kg/injection, schedule: Q01DX009 (ip), vehicle: saline with Tween-80
[6] = dose: 100.0 mg/kg/injection, schedule: Q01DX009 (ip), vehicle: Klucel (hydroxypropylcellulose) (HPC)
[7] = dose: 100.0 mg/kg/injection, schedule: Q01DX009 (ip), vehicle: saline with Tween-80
[8] = dose: 200.0 mg/kg/injection, schedule: Q01DX009 (ip), vehicle: Klucel (hydroxypropylcellulose) (HPC)
[9] = dose: 200.0 mg/kg/injection, schedule: Q01DX009 (ip), vehicle: saline with Tween-80
[10] = dose: 400.0 mg/kg/injection, schedule: Q01DX009 (ip), vehicle: saline with Tween-80
[11] = dose: 100.0 mg/kg/injection, schedule: Q04DX003 (ip), vehicle: saline with Tween-80
[12] = dose: 200.0 mg/kg/injection, schedule: Q04DX003 (ip), vehicle: saline with Tween-80
[13] = dose: 400.0 mg/kg/injection, schedule: Q04DX003 (ip), vehicle: saline with Tween-80
[14] = dose: 100.0 mg/kg/injection, schedule: Q01DX001 (ip), vehicle: saline
[15] = dose: 200.0 mg/kg/injection, schedule: Q01DX001 (ip), vehicle: saline
[16] = dose: 400.0 mg/kg/injection, schedule: Q01DX001 (ip), vehicle: saline
[17] = dose: 100.0 mg/kg/injection, schedule: Q01DX001 (ip), vehicle: saline with Tween-80
[18] = dose: 200.0 mg/kg/injection, schedule: Q01DX001 (ip), vehicle: saline with Tween-80
[19] = dose: 400.0 mg/kg/injection, schedule: Q01DX001 (ip), vehicle: saline with Tween-80
[20] = dose: 100.0 mg/kg/injection, schedule: Q04DX002 (ip), vehicle: saline with Tween-80
[21] = dose: 200.0 mg/kg/injection, schedule: Q04DX002 (ip), vehicle: saline with Tween-80
[22] = dose: 50.0 mg/kg/injection, schedule: Q01DX009 (ip), vehicle: saline
[23] = dose: 100.0 mg/kg/injection, schedule: Q01DX009 (ip), vehicle: saline
[24] = dose: 200.0 mg/kg/injection, schedule: Q01DX009 (ip), vehicle: saline

Measured: T/C

CCOC(=O)c1ccc(NC(=O)Nc2nccs2)cc1
inactive: dose: 6.25 mg/kg/injection, schedule: Q01DX009 (ip), vehicle: Klucel (hydroxypropylcellulose) (HPC) 101 % of control | dose: 6.25 mg/kg/injection, schedule: Q01DX009 (oral), vehicle: Klucel (hydroxypropylcellulose) (HPC) 101 % of control | [1] 100 % of control | dose: 12.5 mg/kg/injection, schedule: Q01DX009 (ip), vehicle: saline with Tween-80 108 % of control | dose: 12.5 mg/kg/injection, schedule: Q01DX009 (oral), vehicle: Klucel (hydroxypropylcellulose) (HPC) 100 % of control | dose: 12.5 mg/kg/injection, schedule: Q01DX009 (oral), vehicle: saline with Tween-80 103 % of control | [2] 97 % of control | [3] 110 % of control | dose: 25.0 mg/kg/injection, schedule: Q01DX009 (oral), vehicle: Klucel (hydroxypropylcellulose) (HPC) 100 % of control | dose: 25.0 mg/kg/injection, schedule: Q01DX009 (oral), vehicle: saline with Tween-80 97 % of control | [4] 97 % of control | [5] 114 % of control and 122 % of control | dose: 50.0 mg/kg/injection, schedule: Q01DX009 (oral), vehicle: Klucel (hydroxypropylcellulose) (HPC) 105 % of control | dose: 50.0 mg/kg/injection, schedule: Q01DX009 (oral), vehicle: saline with Tween-80 100 % of control | [6] 105 % of control | [7] 121 % of control and 110 % of control | dose: 100.0 mg/kg/injection, schedule: Q01DX009 (oral), vehicle: Klucel (hydroxypropylcellulose) (HPC) 95 % of control | dose: 100.0 mg/kg/injection, schedule: Q01DX009 (oral), vehicle: saline with Tween-80 101 % of control | [8] 110 % of control | [9] 106 % of control | dose: 200.0 mg/kg/injection, schedule: Q01DX009 (oral), vehicle: Klucel (hydroxypropylcellulose) (HPC) 100 % of control | dose: 200.0 mg/kg/injection, schedule: Q01DX009 (oral), vehicle: saline with Tween-80 95 % of control | [10] 121 % of control | dose: 400.0 mg/kg/injection, schedule: Q01DX009 (oral), vehicle: saline with Tween-80 97 % of control

C/C=C(/c1ccccc1)c1ccc(N(C)C)cc1
inactive: [11] 98 % of control | [12] 91 % of control | [13] 91 % of control

CNC(=O)c1ccc2ccccc2c1
inactive: dose: 50.0 mg/kg/injection, schedule: Q01DX001 (ip), vehicle: saline 106 % of control | [14] 95 % of control | [15] 93 % of control | [16] 95 % of control

NC(=O)C1C(c2ccccc2)=C(c2ccccc2)c2ccccc21 (centres undefined)
inactive: [17] 87 % of control | [18] 87 % of control | [19] 87 % of control

O=C1C(c2ccccc2)CN1C1CCCCC1 (centres undefined)
inactive: [14] 104 % of control | [15] 101 % of control | [16] 87 % of control

O=S1c2ccccc2-c2ccccc21
inactive: [20] 92 % of control | [21] 100 % of control | dose: 400.0 mg/kg/injection, schedule: Q04DX002 (ip), vehicle: saline with Tween-80 103 % of control

Cc1csc2ncnc(Cl)c12
inactive: [17] 101 % of control | [18] 97 % of control | [19] 97 % of control

CCOC(=O)C(Cc1ccc(OC)c(OC)c1)C(Cc1ccc(OC)c(OC)c1)C(=O)OCC (centres undefined)
inactive: [7] 96 % of control | [11] 95 % of control | [9] 95 % of control | [12] 93 % of control | [10] 96 % of control | [13] 87 % of control

Cc1ccc(NC(=O)Oc2ccccc2F)cc1C
inactive: [5] 100 % of control | [7] 87 % of control | [9] 104 % of control

CCOC(OCC)c1cc(-c2cnc(N)nc2N)cc(Cl)c1Cl
inactive: [17] 98 % of control | [18] 97 % of control | [19] 97 % of control

CC(=O)CC(C)=Nc1ccc([N+](=O)[O-])cc1
inactive: [7] 90 % of control | [9] 93 % of control | [10] 90 % of control

O=C(O)C(Cc1ccc(O)cc1)c1ccccc1 (centres undefined)
inactive: [7] 103 % of control | [9] 101 % of control | [10] 95 % of control

O=C(Nc1cccc(Cl)c1)c1ccc(C(=O)Nc2cccc(Cl)c2)cc1
inactive: dose: 75.0 mg/kg/injection, schedule: Q01DX001 (ip), vehicle: saline 100 % of control | dose: 150.0 mg/kg/injection, schedule: Q01DX001 (ip), vehicle: saline 98 % of control | dose: 300.0 mg/kg/injection, schedule: Q01DX001 (ip), vehicle: saline 102 % of control

CO[Si](c1ccccc1)(c1ccccc1)c1ccc(Br)cc1
inactive: [11] 96 % of control | [12] 98 % of control | [13] 102 % of control

O=C(O)c1cc(=O)cc(C(=O)O)o1
inactive: [3] 91 % of control | [4] 91 % of control | [5] 90 % of control | [6] 91 % of control | [7] 95 % of control

Cn1c(=O)cc(C=Nc2ccc(S(N)(=O)=O)cc2)c2ccccc21
inactive: [7] 90 % of control | [9] 89 % of control | [10] 89 % of control

CC1CC[N-]CC1.CC1CC[N-]CC1.CC1CC[N-]CC1.CC1CC[N-]CC1.[Cl][Rh][Cl]
inactive: dose: 50.0 mg/kg/injection, schedule: Q01DX009 (ip), vehicle: saline sonified 97 % of control | dose: 100.0 mg/kg/injection, schedule: Q01DX009 (ip), vehicle: saline sonified 97 % of control | [11] 111 % of control | [12] 86 % of control

CCCCCCCCCCCCCCCCn1cnc2c(Cl)ncnc21
inactive: dose: 12.5 mg/kg/injection, schedule: Q01DX005 (ip), vehicle: other 94 % of control | dose: 25.0 mg/kg/injection, schedule: Q01DX005 (ip), vehicle: other 91 % of control | dose: 50.0 mg/kg/injection, schedule: Q01DX005 (ip), vehicle: other 91 % of control | dose: 100.0 mg/kg/injection, schedule: Q01DX005 (ip), vehicle: other 92 % of control | dose: 200.0 mg/kg/injection, schedule: Q01DX005 (ip), vehicle: other 89 % of control

NC(=S)OCCCCCn1cnc2c(=S)nc[nH]c21
inactive: [17] 95 % of control | [18] 97 % of control | [19] 105 % of control

O=[n+]1ccn([O-])c2ccccc21
inactive: [20] 111 % of control | [21] 105 % of control

CCCNCCN(CC)CC
inactive: [22] 96 % of control | [23] 93 % of control | dose: 100.0 mg/kg/injection, schedule: Q04DX003 (ip), vehicle: saline 100 % of control | [24] 96 % of control | dose: 200.0 mg/kg/injection, schedule: Q04DX003 (ip), vehicle: saline 96 % of control

O=S(=O)(N/N=C/c1ccccc1)c1ccccc1
inactive: [1] 97 % of control | [2] 95 % of control | [4] 90 % of control | [6] 94 % of control | [8] 92 % of control | dose: 400.0 mg/kg/injection, schedule: Q01DX009 (ip), vehicle: Klucel (hydroxypropylcellulose) (HPC) 97 % of control

CCN(C(=O)Nc1ccccc1OC)c1ccccc1
inactive: [11] 98 % of control | [12] 98 % of control | [13] 93 % of control

Cc1cc(O)c(N=Nc2cccc(C(=O)O)c2)cc1C
inactive: [22] 107 % of control | [23] 96 % of control | [24] 103 % of control

CC(=O)CC(=O)C(F)(F)F.CC(=O)CC(=O)C(F)(F)F.CC(=O)CC(=O)C(F)(F)F.[Sm]
inactive: [11] 95 % of control | [12] 100 % of control | [13] 100 % of control

COc1ccc(OC)c(N=C2C(=O)Nc3ccc(Br)cc32)c1
inactive: [20] 91 % of control | [21] 91 % of control

CC(=O)OC(C)CC(C)(C)OC(C)=O (centres undefined)
inactive: [17] 95 % of control | [18] 92 % of control | [19] 103 % of control
